In patent publication US9663480B2, “BIS-MMF derivatives” (RATIOPHARM GMBH, priority 2013, dated 2017):

Experiment: Kinetics of MMF-release during incubation in intestinal fluid from the minipig (LC-MS quantification of MMF)
Assay type: in vitro ADME, Gottingen SPF minipig
Details: diluted small intestinal fluid (1/20 v/v with 50 mM KH2PO4, pH 6.8), 37° C., samples at 0-120 min; FIG. 1; DMF as reference
Experimental: Investigation and Comparision of the Kinetics of MMF-Release of the Different Compounds of the Present Invention and DMF During Incubation in Intestinal Fluid from the Minipig
Intestinal fluid samples were prepared at CiToxLAB Scantox A/S. The samples were taken from 1 female Gottingen SPF minipig from CiToxLAB Scantox A/S standard stock, originally obtained from Ellegaard Gottingen Minipigs A/S, DK-4261 Dalmose, Denmark. The minipig was 10 months old and the body weight was 21 kg. The minipig was identified by an individual number tagged to the pinna of one ear (animal number is documented in the raw data).
The minipig was fasted for approximately 28 hours before sampling of intestinal fluid. […]
Incubations were continued and in case the result of analysis of the 120 min indicated the presence of remaining intact MMF prodrug, additional samples were taken (t=360 or 420 min and at 1,260 or 1,320 min) and analysed.
The concentration/peak area ratio data pairs were subjected to regression analysis with 1/x weighting and the resulting calibration equation was used to quantify the MMF content in incubation samples.

COC(=O)/C=C/C(=O)OCCN1CCN(CCOC(=O)/C=C/C(=O)OC)CC1 [Example 1, (E)-But-2-enedioic acid-2-{4-[2-((E)-3-methoxycarbonyl-acryloyloxy)-ethyl]-piperazin-1-yl}-ethyl ester methyl ester]
hydrolysis to MMF (MMF release) compared with DMF: substantially the same hydrolysis to MMF than DMF
